The values that follow are results of earlier work, collected in patent EP4609858A1, “BUP[…] AND PREPARATION METHOD THEREFOR” (Shenzhen Sciencare Pharmaceutical Co., Ltd., priority 2023, dated 2024).

Where a name gives a salt, the structure may show the parent alone. Read-outs that look alike come from different tables or passages of the source.

For the compound `CO[C@]12CC[C@@]3(C[C@@H]1[C@](C)(O)C(C)(C)C)[C@H]1Cc4ccc(O)c5c4[C@@]3(CCN1CC1CC1)[C@H]2O5` [buprenorphine hydrochloride], the solubility result by setting is: (in alcohol) “soluble”; (in methanol) “freely soluble”; (in water) “slightly soluble”.
